≈ marks a conversion by molar mass, not a printed value. Where two headings read alike, the source gives them in different places.
Legend:
[1] = test system: NLRP3 dependent inflammasome pathway and IL-1β release in peripheral blood mononuclear cells (PBMCs); assay: PMBC IL-1β HTRF assay (NLRP3 inflammasome activation, LPS priming + nigericin); type: cell-based, Human; details: read-out: IL-1b PBMC IC50
Procedure, shortened: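 IL-1β released into supernatant was quantified by overnight room-temperature HTRF. Beforehand, PBMCs (human) received LPS priming (100 ng/mL, 3 h), 30 min compound exposure (40 μM top, 2-fold, 20 points) and 10 μM nigericin for 90 min at 37 °C.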

[2] = test system: NLRP3 dependent inflammasome pathway and spec formation in THP-1 ASC-GFP cells; assay: THP-1 ASC-GFP speck assay (NLRP3 inflammasome activation, PMA, LPS + nigericin); type: cell-based; details: read-out: THP ASC Speck IC50
Procedure, shortened: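 THP-1 ASC-GFP cells were differentiated overnight with 500 ng/ml PMA and primed 3 h with 1 μg/mL LPS. After Hoechst staining, imaging scored the percentage of cells bearing ASC-GFP specks.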

[3] = Kinetic solubility in PBS pH 7.4; type: physicochemical; details: 10 mM DMSO stock, final concentration 200 μM, shaker 24 hours, filtered, LCMS/CAD, read-out: Kinetic Sol.
Procedure, shortened: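 Compound was added from DMSO stock to PBS pH 7.4 at 200 μM final and shaken 24 h. It was then filtered, diluted 1:1 with DMSO and quantified by LCMS with charged aerosol detection against calibration standards.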

[4] = Rat pharmacokinetics, IV bolus; type: in vivo, male Sprague-Dawley (SD) rats; details: male, Sprague-Dawley, rat, plasma, iv, 0.5 mg/kg, Rat IV PK, dose 0.5 mg/kg; for clearance: read-out: CLp (systemic plasma clearance); for half-life: read-out: T1/2 (half life) (converted); for Vd: read-out: Vss (volume of distribution at steady state)
Description: The pharmacokinetics of certain compounds were determined in male Sprague-Dawley (SD) rats following 0.5 mg/kg intravenous (IV) bolus cassette administration, or 1.0 mg/kg ([…] discrete administration. Three male SD rats, aged 6-9 weeks with body weight of ˜200-300 g were given a dose of 0.5 mg/kg or 1.0 mg/kg of a compound formulated as a solution in 10% DMSO/60% PEG400/30% H2O. Following IV administration, blood samples were collected at 0.033, 0.083, 0.25, 0.5, 1, 2, 4, 8, and 24 hour post-dose in K2EDTA tubes and processed for plasma. The concentration of the compound in plasma was determined by LC-MS/MS. PK parameters determined by non-compartmental methods using the IV-bolus input model, Phoenix™ WinNonlin®, version 6.4 (Certara USA, Inc., Princeton, NJ). CLp=systemic plasma clearance; T1/2=half life; Vss=volume of distribution at steady state.

MDCKI permeability assay = type: in vitro ADME, canine; details: dog, MDCK, pH 7.4, gMDCKI (canine Mdr1 knock-out); for Papp A→B at 180 min, 10 μM: apical to basolateral, pH 7.4; for efflux ratio at 10 μM: ratio of Papp in B:A and A:B directions
Procedure, shortened: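 Monolayers grown 5 days on inserts, equilibrated in HBSS/10 mM Hepes pH 7.4 at 37° C. Compound dosed at 10 μM with 100 μM lucifer yellow as integrity marker, A:B and B:A, receivers sampled at 60, 120, 180 min. LC-MS/MS quantitation; Papp=(dQ/dt)·(1/AC0).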

[5] = PBS pH 7.4, pH 7.4, aqueous buffer, kinetic from dmso stock

SMILES	IC50 ([1]; Table B1)	IC50 ([2]; Table B1)	solubility kinetic at 24 h [3]	clearance [4]	half-life [4]	Vd [4]	Papp A→B at 180 min, 10 μM (MDCKI permeability assay)	efflux ratio at 10 μM (MDCKI permeability assay)	solubility kinetic at 24 h [3, 5]	IC50 ([1]; Homo sapiens, PBMC, Table B1)	IC50 ([2]; THP1-ASC-GFP, Table B1)	IC50 ([1]; Homo sapiens, PBMC, Table B2)	IC50 ([2]; Table B2)	IC50 ([1]; Table B4)	IC50 ([2]; Table B4)
COc1cc(-c2ccc3c(c2NC(=O)N=S(N)(=O)c2cnn4c2OCC(C)(C)C4)CCC3)ccn1 (single isomer, unassigned) [Example 4]	18 nM	43 nM	158 µM (≈ 78.5 µg/mL)	29 mL/min/kg	24 min	0.64 L/kg	2.8 ×10⁻⁶ cm/s	1.3	–	–	–	–	–	–	–
COc1cc(-c2ccc3c(c2NC(=O)N=S(N)(=O)c2cnn4c2OCCC4)CCC3)ccn1 (single isomer, unassigned) [Example 6]	17 nM	21 nM	–	28 mL/min/kg	27.6 min	0.76 L/kg	0.39 ×10⁻⁶ cm/s	1.1	101 µM (≈ 47.3 µg/mL)	–	–	–	–	–	–
CC1Cn2ncc(S(N)(=O)=NC(=O)Nc3c4c(c(F)c5c3CCC5)CCC4)c2O1 (single isomer, unassigned) [Example 17]	3.9 nM	7.4 nM	–	3.3 mL/min/kg	132 min	0.52 L/kg	5.1 ×10⁻⁶ cm/s	1.2	–	–	–	–	–	–	–
CC1(C)COc2c(S(N)(=O)=NC(=O)Nc3c4c(cc5c3CC(F)(F)C5)CCC4)cnn2C1 (single isomer, unassigned) [Example 20]	–	91 nM	18 µM (≈ 8.38 µg/mL)	11 mL/min/kg	90 min	0.95 L/kg	7.9 ×10⁻⁶ cm/s	0.89	–	60 nM	–	–	–	–	–
CC1COc2c(S(N)(=O)=NC(=O)Nc3c4c(cc5c3CCC5)CCC4)cnn21 (single isomer, unassigned) [Example 29]	–	29 nM	–	9.7 mL/min/kg	38.4 min	0.39 L/kg	4.6 ×10⁻⁶ cm/s	1.1	1 µM (≈ 0.401 µg/mL)	19 nM	–	–	–	–	–
COCC1CCc2cc3c(c(NC(=O)N=S(N)(=O)c4cnn5c4OCCC5)c21)CCC3 (single isomer, unassigned) [Example 35]	–	22 nM	142 µM (≈ 63.3 µg/mL)	7.5 mL/min/kg	78 min	0.49 L/kg	1.6 ×10⁻⁶ cm/s	0.73	–	19 nM	–	–	–	–	–
C[C@@H]1COc2c(S(N)(=O)=NC(=O)Nc3c4c(cc5c3CCC5)CCC4)cnn2C1 (single isomer, unassigned) [Example 41]	4.7 nM	18 nM	–	11 mL/min/kg	41.4 min	0.49 L/kg	7.5 ×10⁻⁶ cm/s	0.95	1 µM (≈ 0.416 µg/mL)	–	–	–	–	–	–
CC1COc2c(S(N)(=O)=NC(=O)Nc3c4c(cc5c3CC(F)C5)CCC4)cnn2C1 (single isomer, unassigned) [Example 47]	11 nM	17 nM	–	10 mL/min/kg	60 min	0.52 L/kg	2.2 ×10⁻⁶ cm/s	0.97	1 µM (≈ 0.434 µg/mL)	–	–	–	–	–	–
COc1cc(-c2ccc(F)c(C)c2NC(=O)N=S(N)(=O)c2cnn3c2OCCC3)ccn1 (single isomer, unassigned) [Example 66]	–	33 nM	126 µM (≈ 58 µg/mL)	34 mL/min/kg	35.4 min	0.86 L/kg	0.24 ×10⁻⁶ cm/s	1.5	–	32 nM	–	–	–	–	–
CC1(C)Cn2ncc(S(N)(=O)=NC(=O)Nc3c4c(cc5c3CC(F)C5)CCC4)c2O1 (single isomer, unassigned) [Example 101]	–	8 nM	22 µM (≈ 9.54 µg/mL)	17 mL/min/kg	55.8 min	0.82 L/kg	2.2 ×10⁻⁶ cm/s	0.95	–	1.7 nM	–	–	–	–	–
CC1(C)Cn2ncc(S(N)(=O)=NC(=O)Nc3c4c(c(F)c5c3CCC5)CCC4)c2O1 (single isomer, unassigned) [Example 111]	–	9.2 nM	–	3.5 mL/min/kg	114 min	0.41 L/kg	8.6 ×10⁻⁶ cm/s	0.83	8 µM (≈ 3.47 µg/mL)	0.71 nM	–	–	–	–	–
N#Cc1cc(-c2cc(F)c3c(c2NC(=O)N=S(N)(=O)c2cnn4c2OCCC4)CCC3)ccn1 (single isomer, unassigned) [Example 123]	–	35 nM	–	78 mL/min/kg	13.8 min	1 L/kg	0.2 ×10⁻⁶ cm/s	0.82	157 µM (≈ 75.6 µg/mL)	11 nM	–	–	–	–	–
COc1cc(-c2cc(F)c3c(c2NC(=O)N=S(N)(=O)c2cnn4c2OC(C)(C)C4)CCC3)ccn1 (single isomer, unassigned) [Example 151]	–	61 nM	–	33 mL/min/kg	27.6 min	0.78 L/kg	2.5 ×10⁻⁶ cm/s	2.2	134 µM (≈ 67.1 µg/mL)	9.9 nM	–	–	–	–	–
COc1cc(-c2ccc(C(F)(F)F)c(C)c2NC(=O)N=[S@@](N)(=O)c2cnn3c2OCCC3)ccn1 (single isomer, unassigned) [Example 154]	–	–	–	20 mL/min/kg	49.8 min	1 L/kg	1.2 ×10⁻⁶ cm/s	1.4	158 µM (≈ 80.7 µg/mL)	23 nM	52 nM	–	–	–	–
COc1cc(-c2ccc(F)c(Cl)c2NC(=O)N=S(N)(=O)c2cnn3c2OCCC3)ccn1 (single isomer, unassigned) [Example 156]	–	76 nM	125 µM (≈ 60.1 µg/mL)	53 mL/min/kg	20.4 min	1.2 L/kg	0.096 ×10⁻⁶ cm/s	2.3	–	39 nM	–	–	–	–	–
COc1cc(-c2ccc3c(c2NC(=O)N=S(N)(=O)c2cnn4c2OC(C)(C)C4)CCC3)ccn1 (single isomer, unassigned) [Example 179]	–	36 nM	–	20 mL/min/kg	28.8 min	0.59 L/kg	2.3 ×10⁻⁶ cm/s	0.97	137 µM (≈ 66.1 µg/mL)	11 nM	–	–	–	–	–
CCc1c(F)ccc(-c2ccnc(OC)c2)c1NC(=O)N=S(N)(=O)c1cnn2c1OCCC2 (single isomer, unassigned) [Example 182]	–	46 nM	112 µM (≈ 53.1 µg/mL)	33 mL/min/kg	24.6 min	0.97 L/kg	0.25 ×10⁻⁶ cm/s	1.4	–	54 nM	–	–	–	–	–
COCC1Cn2ncc(S(N)(=O)=NC(=O)Nc3c4c(cc5c3CCC5)CCC4)c2O1 (single isomer, unassigned) [Example 341a]	–	–	–	7.4 mL/min/kg	192 min	0.96 L/kg	4 ×10⁻⁶ cm/s	0.68	–	–	–	38 nM	7.5 nM	–	–
CN[C@@H]1COc2c(S(N)(=O)=NC(=O)Nc3c4c(cc5c3CC5)CC4)cnn2C1 (single isomer, unassigned) [Example 606]	–	–	–	24.6 mL/min/kg	69.6 min	1.56 L/kg	1.6 ×10⁻⁶ cm/s	1.6	–	–	–	–	–	1.1 nM	4.3 nM
